Assay [1] has as its system EGF receptor tyrosine kinase. Particulars: Fry et al (Science, 265, 1093 (1994)); cited from earlier work.
The conditions of assay [2]: stated without data, in contrast to the compounds of the invention; cited from earlier work.
The test system of the next assay is other tyrosine kinases. Particulars: Fry et al (Science, 265, 1093 (1994)); cited from earlier work.
A further assay concerns the target T1, c-erbB-2 (Homo sapiens, UniProt P04626).
T1 construct: recombinant construct of the intracellular domain of c-erbB-2 that is constitutively active; made in house
Put plainly: c-erbB-2 substrate phosphorylation assay (33P-labelled γ-phosphate from ATP onto PolyGluAlaTyr). Particulars: 1 hour, room temperature, 100 μM ATP, 10 mM MnCl2, pH 7.4, 2% DMSO; recombinant intracellular domain of c-erbB-2. The assay is classed as biochemical. The procedure: Compounds of the present invention were tested for protein tyrosine kinase inhibitory activity in a substrate phosphorylation assay and a cell proliferation assay. The substrate phosphorylation assay uses a baculovirus expressed, recombinant construct of the intracellular domain of c-erbB-2 that is constitutively active. […] The reaction is stopped by the addition of EDTA (final concentration 0.1M) and the peptide is then precipitated onto ion exchange filter paper and the incorporated radioactivity determined. The results are shown in the first column of Table 1 below as the IC50 values in nM.

Another assay deals with HB4a erbB-2 cells. Put plainly: cell proliferation assay, HB4a cells transformed by over-expression of c-erbB-2. The assay is classed as cell-based. Particulars: Homo sapiens, 96 h, low serum, 4 days at 37° C., methylene blue, 0.5% DMSO. The procedure:
(§1) Compounds of the present invention were tested for protein tyrosine kinase inhibitory activity in a substrate phosphorylation assay and a cell proliferation assay. The cell proliferation assay uses an immortalised human breast epithelial cell line (HB4a) which has been transformed by over-expression of c-erbB-2. Growth of these cells in low serum is dependent upon the c-erbB-2 tyrosine kinase activity. The specificity of the effect of the test compounds on tyrosine kinase dependent growth over general toxicity is assessed by comparison to an HB4a cell line which has been transfected with ras. Cells are plated at 3000/well in 96-well plates in 0.1 ml medium and allowed to attach overnight. test compound is added in 0.1 ml medium, with a final concentration of 0.5% DMSO, and the plates incubated for 4 days at 37° C. The cells are then examined microscopically for evidence of morphological detransformation and cell mass is estimated by staining with methylene blue and measuring the absorbance at 620 nm. The results are shown in the second and third columns of Table 1 below as the IC50 values in nM.

The next assay deals with HB4a ras cells. Put plainly: cell proliferation assay, HB4a cells transfected with ras. The format is cell-based. Particulars: Homo sapiens, 96 h, 4 days at 37° C., methylene blue, 0.5% DMSO, control for general toxicity. On the procedure: as §1

The values below come from patent US6169091A, “Bicyclic heteroaromatic compounds as protein tyrosine kinase inhibitors” (Glaxo Wellcome Inc., priority 1995, dated 2001).

Where a name gives a salt, the structure may show the parent alone. Bounds are passed on as bounds.

T1 sequence (P04626 676-1255 limits assumed): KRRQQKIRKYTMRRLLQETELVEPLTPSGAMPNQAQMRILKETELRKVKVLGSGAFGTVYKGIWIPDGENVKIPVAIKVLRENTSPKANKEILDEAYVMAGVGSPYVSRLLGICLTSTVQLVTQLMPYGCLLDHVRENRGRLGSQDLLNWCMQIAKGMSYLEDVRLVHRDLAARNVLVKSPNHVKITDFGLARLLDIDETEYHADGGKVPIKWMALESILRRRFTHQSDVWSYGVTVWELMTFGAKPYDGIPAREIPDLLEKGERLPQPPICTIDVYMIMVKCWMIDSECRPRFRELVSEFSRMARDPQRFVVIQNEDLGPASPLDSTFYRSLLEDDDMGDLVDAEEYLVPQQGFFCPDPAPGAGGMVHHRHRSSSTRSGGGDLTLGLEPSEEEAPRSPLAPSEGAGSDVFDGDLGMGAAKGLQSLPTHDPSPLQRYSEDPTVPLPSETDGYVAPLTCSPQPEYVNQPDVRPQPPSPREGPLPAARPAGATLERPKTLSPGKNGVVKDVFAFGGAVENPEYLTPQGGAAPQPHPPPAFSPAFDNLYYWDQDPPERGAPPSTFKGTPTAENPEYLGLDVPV

For `COc1cc2ncnc(Nc3cccc(Br)c3)c2cc1OC`, the “inhibition of the EGF receptor tyrosine kinase” value in assay [1] was “picomolar concentrations”. Further, the in vivo activity result in assay [2] is “does not however exhibit good in vivo activity”. Also, the “inhibition of other tyrosine kinases” value with other tyrosine kinases was “micromolar or higher concentrations”.

What is called IC50 is the concentration at which inhibition is half-maximal. As for `Clc1cc2c(Nc3ccc(OCc4ccccc4)cc3)ncnc2cn1` [Example 1, 4-(4-Benzyloxyanilino)-6-chloropyrido[3,4-]pyrimidine hydrochloride], the IC50 came to 58 nM at c-erbB-2, 2700 nM with HB4a erbB-2 cells and 17000 nM in the assay with HB4a ras cells.

As to `Cn1cncc1-c1cc2c(Nc3ccc(OCc4ccccc4)cc3)ncnc2cn1` [Example 2, 4-(4-Benzyloxyanilino)-6-(N-methylimidazol-5-yl)pyrido[3,4-d]pyrimidine], the values for the IC50 at c-erbB-2, in the assay with HB4a erbB-2 cells and in the assay on HB4a ras cells were 26 nM, 690 nM and 3700 nM, respectively.

For the compound `Cn1ccnc1-c1cc2c(Nc3ccc(OCc4ccccc4)cc3)ncnc2cn1` [Example 3, 4-(4-Benzyloxyanilino)-6-(N-methylimidazol-2-yl)pyrido[3,4-d]pyrimidine], the values for the IC50 on c-erbB-2, with HB4a erbB-2 cells and in the assay on HB4a ras cells were 115 nM, 11000 nM and 44000 nM, respectively.

In the case of `Cn1nccc1-c1cc2c(Nc3ccc(OCc4ccccc4)cc3)ncnc2cn1` [Example 4, 4-(4-Benzyloxyanilino)-6-(N-methylpyrazol-2-yl)pyrido[3,4-d]pyrimidine], the figures for the IC50 at c-erbB-2, with HB4a erbB-2 cells and in the assay on HB4a ras cells were 124 nM, 2500 nM and 11000 nM, respectively.

As for `c1ccc(COc2ccc(Nc3ncnc4cnc(-c5ccco5)cc34)cc2)cc1` [Example 5, 4-(4-Benzyloxyanilino)-6-(furan-2-yl)pyrido[3,4-d]pyrimidine], the results for the IC50 on c-erbB-2, with HB4a erbB-2 cells and with HB4a ras cells were 14 nM, 500 nM and 11000 nM, respectively.

As for `CN(C)c1cc2c(Nc3ccc(OCc4ccccc4)cc3)ncnc2cn1` [Example 7, 4-(4-Benzyloxyanilino)-6-(N,N-dimethylamino)pyrido[3,4-d]pyrimidine], the IC50 on c-erbB-2 was 1.3 nM; in the assay on HB4a erbB-2 cells it was 300 nM; in the assay with HB4a ras cells it was more than 50000 nM.

On to `CN1CCN(c2cc3c(Nc4ccc(OCc5ccccc5)cc4)ncnc3cn2)CC1` [Example 8, 4-(4-Benzyloxyanilino)-6-(1-methylpiperazin-4-yl)-pyrido[3,4-d]pyrimidine], for which the IC50 at c-erbB-2 came out at 20 nM; with HB4a erbB-2 cells, 590 nM; in the assay on HB4a ras cells it was 7500 nM.

Regarding `O=S1(=O)CCN(c2cc3c(Nc4ccc(OCc5ccccc5)cc4)ncnc3cn2)CC1` [Example 11, 4-(4-Benzyloxyanilino)-6-(thiomorpholine-1,1-dioxide-4-yl)-pyrido[3,4-d]pyrimidine], the figures for the IC50 on c-erbB-2, in the assay with HB4a erbB-2 cells and in the assay on HB4a ras cells were 920 nM, 10000 nM and 37000 nM, respectively.

In the case of `CN(C)c1cc2c(Nc3ccc(Oc4ccccc4)cc3)ncnc2cn1` [Example 12, 6-N,N-Dimethylamino-4-(4-phenoxyanilino)pyrido[3,4-d]pyrimidine], the IC50 on c-erbB-2 was 24 nM; in the assay on HB4a erbB-2 cells, 1600 nM; in the assay on HB4a ras cells, 31000 nM.

Take `O=S(=O)(c1ccccc1)c1ccc(Nc2ncnc3cnc(Cl)cc23)cc1` [Example 14, 6-Chloro-4-(4-phenylsulphonylanilino)pyrido[3,4-d]pyrimidine hydochloride]: the results for the IC50 at c-erbB-2, in the assay on HB4a erbB-2 cells and in the assay on HB4a ras cells were 900 nM, 15000 nM and 50000 nM, respectively.

`CN(C)c1cc2c(Nc3ccc(S(=O)(=O)c4ccccc4)cc3)ncnc2cn1` [Example 15, 6-(N,N-Dimethylamino)-4-(4-phenylsulphonylanilino)pyrido[3,4-d]pyrimidine]: the IC50 worked out at 30 nM on c-erbB-2, 570 nM in the assay with HB4a erbB-2 cells and 32000 nM in the assay on HB4a ras cells.

Turning to `CN1CCN(c2cc3c(Nc4ccc(S(=O)(=O)c5ccccc5)cc4)ncnc3cn2)CC1` [Example 16, 6-(1-Methylpiperazin-4-yl)-4-(4-phenylsulphonylanilino)-pyrido[3,4-d]pyrimidine], the IC50 at c-erbB-2 turned out to be 50 nM; with HB4a erbB-2 cells, 2400 nM; in the assay with HB4a ras cells, 6600 nM.

With `CN(C)CCN(C)c1cc2c(Nc3ccc(S(=O)(=O)c4ccccc4)cc3)ncnc2cn1` [Example 17, 6-[N-Methyl-N-(2-dimethylaminoethyl)amino]-4-(4-phenylsulphonylanilino)-pyrido[3,4-d]pyrimidine], the IC50 at c-erbB-2 turned out to be 200 nM; in the assay with HB4a erbB-2 cells, 4400 nM; in the assay on HB4a ras cells, 10000 nM.

For `CN(CCO)c1cc2c(Nc3ccc(S(=O)(=O)c4ccccc4)cc3)ncnc2cn1` [Example 18, 6-[N-Methyl-N-(2-hydroxyethyl)amino]-4-(4-phenylsulphonylanilino)pyrido[3,4-d]pyrimidine], the IC50 at c-erbB-2 was 5 nM; with HB4a erbB-2 cells, 150 nM; with HB4a ras cells, 28000 nM.

`CN(C)c1cc2c(Nc3ccc(OCC4OCCO4)cc3)ncnc2cn1` [Example 20, 6-(N,N-Dimethylamino)-4-[4-(1,3-dioxolan-2-yl)methoxyanilino]pyrido[3,4-d]pyrimidine]: the IC50 on c-erbB-2 was 10 nM; with HB4a erbB-2 cells, 2400 nM; in the assay with HB4a ras cells, 46000 nM.

On to `c1ccc(COc2ccc(Nc3ncnc4ccsc34)cc2)cc1` [Example 23, 4-(4-Benzyloxyanilino)thieno[3,2-d]pyrimidine hydrochloride], for which the figures for the IC50 on c-erbB-2, in the assay with HB4a erbB-2 cells and in the assay with HB4a ras cells were 300 nM, 2000 nM and 5000 nM, respectively.

For `COc1ccccc1COc1ccc(Nc2ncnc3ccsc23)cc1Cl` [Example 24, 4-[3-Chloro-4-(2-methoxybenzyloxy)anilino]thieno[3,2-d]pyrimidine hydrochloride], the IC50 on c-erbB-2 was determined as 50 nM; in the assay with HB4a erbB-2 cells it was 10000 nM; with HB4a ras cells, 18000 nM.

Consider `Fc1ccccc1COc1ccc(Nc2ncnc3ccsc23)cc1Cl` [Example 25, 4-[3-Chloro-4-(2-fluorobenzyloxy)anilino]thieno[3,2-d]pyrimidine hydrochloride], for which the half-maximal inhibitory concentration (IC50) was found to be 150 nM at c-erbB-2, 500 nM with HB4a erbB-2 cells and 3000 nM with HB4a ras cells.

For `Clc1cc(Nc2ncnc3ccsc23)ccc1OCc1ccccc1Br` [Example 26, 4-[4-(2-Bromobenzyloxy)-3-chloroanilino]thieno[3,2-d]pyrimidine hydrochloride], the IC50 is 230 nM at c-erbB-2, 2500 nM with HB4a erbB-2 cells and 30000 nM with HB4a ras cells.

In the case of `c1ccc(Cc2ccc(Nc3ncnc4ccsc34)cc2)cc1` [Example 28, 4-(4-Benzylanilino)thieno[3,2-d]pyrimidine hydrochloride], the IC50 on c-erbB-2 was 200 nM; in the assay with HB4a erbB-2 cells it was 3000 nM; in the assay with HB4a ras cells, 13000 nM.

Consider `c1ccc(Oc2ccc(Nc3ncnc4ccsc34)cc2)cc1` [Example 29, 4-(4-Phenoxyanilino)thieno[3,2-d]pyrimidine hydrochloride], for which the IC50 at c-erbB-2 is 110 nM; in the assay on HB4a erbB-2 cells, 5000 nM; with HB4a ras cells, 20000 nM.

Take `FC(F)(Oc1ccc(Nc2ncnc3ccsc23)cc1)c1ccccc1` [Example 30, 4-(4-(a,a-Difluorobenzyloxy)anilino)thieno[3,2-d]pyrimidine hydrochloride]: the results for the IC50 at c-erbB-2, in the assay on HB4a erbB-2 cells and in the assay on HB4a ras cells were 860 nM, 6000 nM and 15000 nM, respectively.

With `Cc1csc2ncnc(Nc3ccc(OCc4ccccc4F)c(Cl)c3)c12` [Example 35, 4-[3-Chloro-4-(2-fluorobenzyloxy)anilino]-5-methylthieno[2,3-d]pyrimidine hydrochloride], the IC50 was 99 nM on c-erbB-2, 8000 nM with HB4a erbB-2 cells and 25000 nM with HB4a ras cells.

For `Cc1csc2ncnc(Nc3ccc(OCC4CCCCC4)cc3)c12` [Example 36, 4-(4-Cyclohexylmethoxyanilino)-5-methylthieno[2,3-d]pyrimidine hydrochloride], the IC50 on c-erbB-2 came to 500 nM; in the assay with HB4a erbB-2 cells, 10000 nM; in the assay with HB4a ras cells, 10000 nM.

In the case of `Cc1csc2ncnc(Nc3ccc(Oc4ccccc4)cc3)c12` [Example 37, 5-Methyl4-(4-phenoxyanilino)thieno[2,3-d]pyrimidine hydrochloride], the IC50 at c-erbB-2 came out at 650 nM; in the assay with HB4a erbB-2 cells, 17000 nM; in the assay on HB4a ras cells, 25000 nM.

As for `c1ccc(Oc2ccc(Nc3ncnc4scc(-c5cccs5)c34)cc2)cc1` [Example 38, 4-(4-Phenoxyanilino)-5-(2-thienyl)thieno[2,3-d]pyrimidine hydrochloride], the values for the IC50 on c-erbB-2, with HB4a erbB-2 cells and with HB4a ras cells were 490 nM, 20000 nM and 20000 nM, respectively.
